What was measured:
[1] = test system: Glo-Response ARE-luc2P HEK293 cell line; test: ARE luciferase reporter cell-based assay; conditions: Homo sapiens, HEK293, 24 h, average of results obtained;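 note: luciferase signal tracks Nrf2 activation of the ARE once compounds disrupt KEAP1-Nrf2 binding, read with One-Glo reagent, DMSO serving as low control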
[2] = biological target: Kelch domain of human KEAP1 (321-624 aa) (Homo sapiens (Human), UniProt Q14145); test: KEAP1 KELCH ThermoFluor binding assay; conditions: KEAP Kelch […], 1,8-ANS, pH 7.0, average of results obtained, read-out: Tf Kd;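 note: Ligand-induced melting temperature shift of E. coli-expressed KEAP1 Kelch protein, Kd estimated from concentration-response curves of ΔTm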
Sequence of Kelch domain of human KEAP1 (321-624 aa) (Q14145 321-624): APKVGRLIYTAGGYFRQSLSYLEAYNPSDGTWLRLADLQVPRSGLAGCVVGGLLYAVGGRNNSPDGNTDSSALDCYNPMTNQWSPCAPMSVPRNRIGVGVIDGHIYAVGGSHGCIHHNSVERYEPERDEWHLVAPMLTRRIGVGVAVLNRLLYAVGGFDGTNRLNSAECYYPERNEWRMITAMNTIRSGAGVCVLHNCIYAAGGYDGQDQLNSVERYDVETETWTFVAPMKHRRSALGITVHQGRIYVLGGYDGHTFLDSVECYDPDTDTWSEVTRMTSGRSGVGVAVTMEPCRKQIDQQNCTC

Row | Structure (SMILES) | EC50 [1] [nM] | Kd [2] [nM]
1 | Cc1ccc(C(CC(=O)O)c2cc(OC3CC3)c3c(c2)nnn3C)cc1CN1C[C@H]2CCCCN2c2ncccc2S1(=O)=O (stereo in doubt) [Example 403, 3-(7-Cyclopropoxy-1-methyl-1H-benzo[d][1,2,3]triazol-5-yl)-3-(3-(((*R)-5,5-dioxido-7,7a,8,9,10,11-hexahydro-6H-dipyrido[2,1-d:2′,3′-f][1,2,5]thiadiazepin-6-yl)methyl)-4-methylphenyl)propanoic Acid] | 20.8 | < 1
2 | Cc1ccc([C@H](CC(=O)O)c2cc(OC3CC3)c3c(c2)nnn3C)cc1CN1C[C@H]2CCCCN2c2ncccc2S1(=O)=O (single isomer, unassigned) [Example 405, (*S)-3-(7-Cyclopropoxy-1-methyl-1H-benzo[d][1,2,3]triazol-5-yl)-3-(3-(((*R)-5,5-dioxido-7,7a,8,9,10,11-hexahydro-6H-dipyrido[2,1-d:2′,3′-f][1,2,5]thiadiazepin-6-yl)methyl)-4-methylphenyl)propanoic Acid] | 7.4 | < 1
3 | Cc1ccc(C(CC(=O)O)c2ccc3c(nnn3CC3CC3)c2C)cc1CN1CC2(COC2)Oc2ncccc2S1(=O)=O (stereo not drawn) [Example 67] | 23 | 0.34
4 | Cc1ccc(C(c2ccc3c(nnn3CC3CC3)c2C)C(C)(C)C(=O)O)nc1CN1CC2(CCOCC2)Oc2nc(OCCN3CCOCC3)ccc2S1(=O)=O (stereo not drawn) [Example 327, 3-(1-(Cyclopropylmethyl)-4-methyl-1H-benzo[d][1,2,3]triazol-5-yl)-2,2-dimethyl-3-(5-methyl-6-((7′-(2-morpholinoethoxy)-1′,1′-dioxido-2,3,5,6-tetrahydrospiro[pyran-4,4′-pyrido[2,3-b][1,4,5]oxathiazepin]-2′(3′H)-yl)methyl)pyridin-2-yl)propanoic Acid] | 6.9 | < 1
5 | CCc1nnc2c(C)c(C(CC(=O)O)c3ccc(C)c(CN4C[C@H]5CCCN5c5ncccc5S4(=O)=O)c3)ccn12 (stereo partly drawn) [Example 281, 3-(3-(((R)-5,5-Dioxido-7a,8,9,10-tetrahydropyrido[2,3-f]pyrrolo[2,1-d][1,2,5]thiadiazepin-6(7H)-yl)methyl)-4-methylphenyl)-3-(3-ethyl-8-methyl-[1,2,4]triazolo[4,3-a]pyridin-7-yl)propanoic Acid] | 480 | < 1
6 | Cc1cnc([C@@H](c2ccn3c(C(F)(F)F)nnc3c2C)C(C)(C)C(=O)O)cc1CN1CC2(CCOCC2)Oc2nc(OCCN3CCCC3)c(C)cc2S1(=O)=O (single isomer, unassigned) [Example 593, (*S)-2,2-Dimethyl-3-(8-methyl-3-(trifluoromethyl)-[1,2,4]triazolo[4,3-a]pyridin-7-yl)-3-(5-methyl-4-((8′-methyl-1′,1′-dioxido-7′-(2-(pyrrolidin-1-yl)ethoxy)-2,3,5,6-tetrahydrospiro[pyran-4,4′-pyrido[2,3-b][1,4,5]oxathiazepin]-2′(3′H)-yl)methyl)pyridin-2-yl)propanoic Acid] | 89.7 | < 1
7 | Cc1c([C@H](CC(=O)O)c2ccc(Cl)c(CN3CC4CCCCN4c4ncc(F)cc4S3(=O)=O)c2)ccn2c(C(F)(F)F)nnc12 (single isomer, unassigned) [Example 93, (*R)-3-(4-Chloro-3-(((*S)-3-fluoro-5,5-dioxido-7,7a,8,9,10,11-hexahydro-6H-dipyrido[2,1-d:2′,3′-f][1,2,5]thiadiazepin-6-yl)methyl)phenyl)-3-(8-methyl-3-(trifluoromethyl)-[1,2,4]triazolo[4,3-a]pyridine-7-yl)propanoic Acid] | 10 | < 1
8 | Cc1ccc([C@H](c2ccn3c(C(F)(F)F)nnc3c2C)C(C)(C)C(=O)O)cc1CN1CC2(CCOCC2)Oc2nc(OCCN3CCOCC3)ccc2S1(=O)=O (single isomer, unassigned) [Example 48, (*R)-2,2-Dimethyl-3-(4-methyl-3-((7′-(2-morpholinoethoxy)-1′,1′-dioxido-2,3,5,6-tetrahydrospiro[pyran-4,4′-pyrido[2,3-b][1,4,5]oxathiazepin]-2′(3′H)-yl)methyl)phenyl)-3-(8-methyl-3-trifluoromethyl)-[1,2,4]triazolo[4,3-a]pyridine-7-yl)propanoic Acid] | 6270 | 820
9 | Cc1ccc(C(CC(=O)O)c2ccn3c(C(F)(F)F)nnc3c2C)cc1CN1C[C@H]2CCCCN2c2ncccc2S1(=O)=O (stereo in doubt) [Example 271, 3-(3-(((*R)-5,5-Dioxido-7,7a,8,9,10,11-hexahydro-6H-dipyrido[2,1-d:2′,3′-f][1,2,5]thiadiazepin-6-yl)methyl)-4-methylphenyl)-3-(8-methyl-3-(trifluoromethyl)-[1,2,4]triazolo[4,3-a]pyridin-7-yl)propanoic Acid] | 22.9 | < 1
10 | Cc1cnc2c(c1)S(=O)(=O)N(Cc1cc([C@H](CC(=O)O)c3ccn4c(C(F)(F)F)nnc4c3C)ccc1C)CC1(CCOCC1)O2 (single isomer, unassigned) [Example 208, (*S)-3-(4-Methyl-3-((8′-methyl-1′,1′-dioxido-2,3,5,6-tetrahydrospiro[pyran-4,4′-pyrido[2,3-b][[,4,5]oxathiazepin]-2′(3′H)-yl)methyl)phenyl)-3-(8-methyl-3-(trifluoromethyl)-[1,2,4]triazolo[4,3-a]pyridin-7-yl)propanoic Acid] | 19 | < 1
11 | Cc1ccc(C(CC(=O)O)c2ccn3c(C(F)(F)F)nnc3c2C)cc1CN1C[C@H]2CCCN2c2ncccc2S1(=O)=O (stereo partly drawn) [Example 264, 3-(3-(((R)-5,5-Dioxido-7a,8,9,10-tetrahydropyrido[2,3-f]pyrrolo[2,1-d][1,2,5]thiadiazepin-6(7H)-yl)methyl)-4-methylphenyl)-3-(8-methyl-3-(trifluoromethyl)-[1,2,4]triazolo[4,3-a]pyridin-7-yl)propanoic Acid] | 18.3 | < 1
12 | Cc1ccc([C@H](CC(=O)O)c2ccn3c(C(F)(F)F)nnc3c2C)cc1CN1C[C@H]2CCN2c2ncccc2S1(=O)=O (single isomer, unassigned) [Example 294, (*S)-3-(3-(((*R)-5,5-Dioxido-7,7a, 8,9-tetrahydro-6H-azeto[2,1-d]pyrido[2,3-f][1,2,5]thiadiazepin-6-yl)methyl)-4-methylphenyl)-3-(8-methyl-3-(trifluoromethyl)-[1,2,4]triazolo[4,3-a]pyridin-7-yl)propanoic Acid] | 270 | 1.61
13 | Cc1ccc([C@H](CC(=O)O)c2ccc3c(nnn3C3CC3)c2C)cc1CN1C[C@@H]2COCCN2c2ncccc2S1(=O)=O (single isomer, unassigned) [Example 24, (*S)-3-(1-Cyclopropyl-4-methyl-1H-benzo[d][1,2,3]triazol-5-yl)-3-(3-(((*R)-5,5-dioxido-7a,8,10,11-tetrahydro-[1,4]oxazino[3,4-d]pyrido[2,3-f][1,2,5]thiadiazepin-6(7H)-yl)methyl)-4-methylphenyl)propanoic Acid] | 4.1 | 0.264
14 | Cc1ccc([C@@H](c2ccn3c(C(F)(F)F)nnc3c2C)C(C)(C)C(=O)O)cc1CN1CC2(CCOCC2)Oc2nc(CCC(=O)NC3CCC3)ccc2S1(=O)=O (single isomer, unassigned) [Example 605, (*S)-3-(3-((7′-(3-Cyclobutylamino-3-oxopropyl)-1′,1′-dioxido-2,3,5,6-tetrahydrospiro[pyran-4,4′-pyrido[2,3-b][1,4,5]oxathiazepin]-2′(3′H)-yl)methyl)-4-methylphenyl)-2,2-dimethyl-3-(8-methyl-3-(trifluoromethyl)-[1,2,4]triazolo[4,3-a]pyridine-7-yl)propanoic Acid] | 109 | < 1
15 | Cc1ccc([C@@H](CC(=O)O)c2cc(OC(F)F)c3c(c2)nnn3C)cc1CN1C[C@H]2CCCCN2c2ncccc2S1(=O)=O (single isomer, unassigned) [Example 3, (*R)-3-(7-(Difluoromethoxy)-1-methyl-1H-benzo[d][1,2,3]triazol-5-yl)-3-(3-(((*R)-5,5-dioxido-7,7a,8,9,10,11-hexahydro-6H-dipyrido[2,1-d:2′,3′-f][1,2,5]thiadiazepin-6-yl)methyl)-4-methylphenyl)propanoic Acid] | 35 | 0.041
16 | Cc1cnc2c(c1)S(=O)(=O)N(Cc1cc(C(CC(=O)O)c3ccn4c(C(F)(F)F)nnc4c3C)ccc1Cl)CC1CCCCN21 (stereo not drawn) [Example 89, 3-(4-Chloro-3-(((*S)-3-methyl-5,5-dioxido-7,7a,8,9,10,11-hexahydro-6H-dipyrido[2,1-d:2′,3′-f][1,2,5]thiadiazepin-6-yl)methyl)phenyl)-3-(8-methyl-3-(trifluoromethyl)-[1,2,4]triazolo[4,3-a]pyridine-7-yl)propanoic Acid] | 6.9 | 0.0054
17 | Cc1ccc([C@@H](CC(=O)O)c2ccc3c(nnn3C3CC3)c2C)cc1CN1CC2(CC2)N(C)c2ncccc2S1(=O)=O (single isomer, unassigned) [Example 226, (*R)-3-(1-Cyclopropyl-4-methyl-1H-benzo[d][1,2,3]triazol-5-yl)-3-(4-methyl-3-((5′-methyl-1′,1′-dioxido-5′H-spiro[cyclopropane-1,4′-pyrido[2,3-f][1,2,5]thiadiazepin]-2′(3′H)-yl)methyl)phenyl)propanoic Acid] | 160 | 6
18 | Cc1ccc([C@H](CC(=O)O)c2ccn3c(C(F)(F)F)nnc3c2C)cc1CN1CC2(CC2)Oc2ncc(C(N)=O)cc2S1(=O)=O (single isomer, unassigned) [Example 201, (*S)-3-(3-((8′-Carbamoyl-1′,1′-dioxidospiro[cyclopropane-1,4′-pyrido[2,3-b][1,4,5]oxathiazepin]-2′(3′H)-yl)methyl)-4-methylphenyl)-3-(8-methyl-3-(trifluoromethyl)-[1,2,4]triazolo[4,3-a]pyridin-7-yl)propanoic Acid] | > 20000 | 300
